Experimental data from ChEMBL document CHEMBL4665641, “Lead optimization and efficacy evaluation of quinazoline-based BET family inhibitors for potential treatment of cancer and inflammatory diseases” (Bioorg Med Chem Lett, 2019).
Blank lines part the entries; values can stand above or below the molecule they belong to.

Columns and labels:
[1] = target: T1, Bromodomain-containing protein 4 (Homo sapiens, UniProt O60885); test: Competitive binding affinity to human partial length BRD4 (BD1,2) (N44 to E460 residues) expressed in bacterial expression system by BROMOscan assay
MV4-11 = test: Cytotoxicity against human MV4-11 cells assessed as inhibition of cell viability; type: functional, cell-based
[2] = Cmax in CD-1 mouse at 10 mg/kg, po; type: ADME, organism-based; parameters: route oral, dose 10 mg/kg; settings: in vivo
[3] = target: T1, Bromodomain-containing protein 4; test: Inhibition of human full-length recombinant N-terminal His-tagged BRD4 (2 to 1362 residues) expressed in Sf9 cells using histone H4 peptide containing acetylated lysine residues as substrate preincubated with enzyme for 30 mins followed by incubation with substrate for 30 mins by Alphascreen assay […]
[4] = Plasma clearance in CD-1 mouse at 2 mg/kg, iv; type: ADME, organism-based
[5] = Oral bioavailability in CD-1 mouse at 10 mg/kg; type: ADME, organism-based; settings: CD-1, mouse, in vivo
[6] = Half life in CD-1 mouse at 2 mg/kg, iv; type: ADME, organism-based; settings: in vivo
[7] = Half life in CD-1 mouse at 10 mg/kg, po; type: ADME, organism-based; settings: in vivo
[8] = Cmax in CD-1 mouse at 2 mg/kg, iv measured after 5 mins; type: ADME, organism-based; parameters: route intravenous, dose 2 mg/kg; settings: CD-1, mouse, in vivo, read-out: Cmax
[9] = AUC(0 to infinity) in CD-1 mouse at 2 mg/kg, iv; type: ADME, organism-based; parameters: time infinity, route intravenous, dose 2 mg/kg; settings: in vivo; for AUC(0-inf): CD-1, mouse; for AUC: mouse
[10] = AUC(0 to infinity) in CD-1 mouse at 10 mg/kg, po; type: ADME, organism-based; parameters: route oral, time infinity, dose 10 mg/kg; settings: CD-1, mouse, in vivo
[11] = Volume of distribution at steady state in CD-1 mouse at 2 mg/kg, iv; type: ADME, organism-based; settings: in vivo, read-out: Vdss
[12] = Stability in mouse liver microsomes assessed as half life; type: ADME, Microsome

Kd [1]: 87 nM
Compound: Cc1noc(C)c1-c1ccc2nc(-c3cnn(C(C)(C)CO)c3)nc(N3CCOC[C@@H]3c3ccccc3)c2c1
IC50 (MV4-11): 1970 nM

Kd [1]: 85 nM
Compound: CNC(=O)Cn1cc(-c2nc(N3CCOC[C@@H]3c3ccccc3)c3cc(-c4c(C)noc4C)ccc3n2)cn1
IC50 (MV4-11): 1010 nM

Kd [1]: 260 nM
Compound: Cc1noc(C)c1-c1ccc2nc(-c3cnn(CC(C)(C)O)c3)nc(N3CCOC[C@H]3c3ccccc3)c2c1
IC50 (MV4-11): 1730 nM

Kd [1]: 99 nM
Compound: Cc1noc(C)c1-c1ccc2nc(-c3cnn(CCO)c3)nc(N3CCOC[C@@H]3c3ccccc3)c2c1

clearance [4]: 6.9 mL/min/kg
bioavailability [5]: 86%
Kd [1]: 68 nM
half-life [6]: 1.4 h
half-life [7]: 1.7 h
Cmax [8]: 2580 ng/mL
Cmax ([2]; CD-1, mouse, read-out: Cmax): 2670 ng/mL
AUC(0-inf) [9]: 4950 ng·h/mL
AUC(0-inf) [10]: 21200 ng·h/mL
Vd [11]: 0.82 L/kg
IC50 [3]: 90 nM
Compound: Cc1noc(C)c1-c1ccc2nc(-c3cnn(CC(C)(C)O)c3)nc(N3CCN(S(C)(=O)=O)C[C@@H]3c3ccccc3)c2c1
IC50 (MV4-11): 1130 nM

clearance [4]: 12.3 mL/min/kg
bioavailability [5]: 118%
Kd [1]: 69 nM
half-life [6]: 2.2 h
half-life [7]: 1.5 h
Cmax [8]: 1860 ng/mL
Cmax ([2]; CD-1, mouse, read-out: Cmax): 1980 ng/mL
AUC(0-inf) [9]: 2730 ng·h/mL
AUC(0-inf) [10]: 16100 ng·h/mL
Vd [11]: 1.89 L/kg
IC50 [3]: 57 nM
Compound: Cn1cc(-c2ccc3nc(-c4cnn(CC(C)(C)O)c4)nc(N4CCOC[C@@H]4c4ccccc4)c3c2)ccc1=O
IC50 (MV4-11): 740 nM

clearance [4]: 5.9 mL/min/kg
bioavailability [5]: 90%
Kd [1]: 58 nM
half-life [6]: 2.6 h
half-life [7]: 2.8 h
Cmax [8]: 1590 ng/mL
Cmax ([2]; CD-1, mouse, read-out: Cmax): 2080 ng/mL
AUC(0-inf) [9]: 5790 ng·h/mL
AUC(0-inf) [10]: 26100 ng·h/mL
Vd [11]: 1.47 L/kg
t1/2 [12]: 0.867 h
IC50 [3]: 13 nM
Compound: Cc1noc(C)c1-c1ccc2nc(-c3cnn(CC(C)(C)O)c3)nc(N3CCOC[C@@H]3c3ccc(F)cc3)c2c1
IC50 (MV4-11): 1270 nM

Kd [1]: 155 nM
t1/2 [12]: 0.033 h
Compound: Cc1noc(C)c1-c1ccc2nc(-c3cnn(CC(C)(C)O)c3)nc(N3CCOC[C@@H]3C3CCCC3)c2c1
IC50 (MV4-11): 1540 nM

Kd [1]: 51 nM
Compound: Cc1noc(C)c1-c1ccc2nc(N3CCC4(CCC(=O)N4C)CC3)nc(N3CCOC[C@@H]3c3ccccc3)c2c1
IC50 (MV4-11): 1380 nM

Kd [1]: 120 nM
Compound: Cc1noc(C)c1-c1ccc2nc(-c3cnn(CC(N)=O)c3)nc(N3CCOC[C@@H]3c3ccccc3)c2c1
IC50 (MV4-11): 2020 nM

Further lines, the molecule ahead of its results:

Compound: Cc1noc(C)c1-c1ccc2nc(-c3cnn(CCO)c3)nc(N3CCOCC3c3ccccc3)c2c1 (configuration not stated)
Cmax ([2]; mouse): 934 ng/mL
IC50 [3]: 72 nM

Compound: Cc1noc(C)c1-c1ccc2nc(-c3cnn(CC(C)(C)O)c3)nc(N3CCOC[C@@H]3c3ccc(Cl)cc3)c2c1
clearance [4]: 5.9 mL/min/kg
bioavailability [5]: 44%
Kd [1]: 305 nM
IC50 (MV4-11): 1600 nM
half-life [6]: 2.4 h
half-life [7]: 2.8 h
Cmax [8]: 1800 ng/mL
Cmax ([2]; CD-1, mouse, read-out: Cmax): 1120 ng/mL
AUC(0-inf) [9]: 5720 ng·h/mL
AUC(0-inf) [10]: 12600 ng·h/mL
Vd [11]: 1.58 L/kg
IC50 [3]: 155 nM

Compound: Cc1cc(-c2ccc3nc(-c4cnn(CC(C)(C)O)c4)nc(N4CCOC[C@@H]4C4CC4)c3c2)cn(C)c1=O
Kd [1]: 70 nM

Compound: Cc1noc(C)c1-c1ccc2nc(N3CCN(CCN(C)C)CC3)nc(N3CCOC[C@@H]3c3ccccc3)c2c1
IC50 (MV4-11): 690 nM
AUC [9]: 585 ng·h/mL

Compound: Cn1cc(-c2ccc3nc(-c4cnn(CC(C)(C)O)c4)nc(N4CCOC[C@@H]4C4CC4)c3c2)ccc1=O
Kd [1]: 2200 nM
IC50 (MV4-11): 2350 nM

Compound: Cn1cc(-c2ccc3nc(-c4cnn(CC(C)(C)O)c4)nc(N4CCOC[C@@H]4C4CCCCC4)c3c2)ccc1=O
Kd [1]: 25 nM
IC50 (MV4-11): 530 nM

Compound: Cc1noc(C)c1-c1ccc2nc(-c3cnn(CC(=O)N(C)C)c3)nc(N3CCOC[C@@H]3c3ccccc3)c2c1
Kd [1]: 110 nM
IC50 (MV4-11): 1800 nM

Compound: CNC(=O)C1CCN(c2nc(N3CCOC[C@@H]3c3ccccc3)c3cc(-c4c(C)noc4C)ccc3n2)CC1
Kd [1]: 73 nM
IC50 (MV4-11): 970 nM

Compound: CC(=O)N1CCN(c2nc(N3CCOC[C@@H]3c3ccccc3)c3cc(-c4c(C)noc4C)ccc3n2)CC1
Kd [1]: 42 nM
IC50 (MV4-11): 1430 nM

Compound: Cc1noc(C)c1-c1ccc2nc(-c3cnn(CC(C)(C)O)c3)nc(N3CCOC[C@@H]3c3cccs3)c2c1
clearance [4]: 7.3 mL/min/kg
bioavailability [5]: 72%
Kd [1]: 220 nM
IC50 (MV4-11): 1950 nM
half-life [6]: 1.4 h
half-life [7]: 2.4 h
Cmax [8]: 1580 ng/mL
Cmax ([2]; CD-1, mouse, read-out: Cmax): 2220 ng/mL
AUC(0-inf) [9]: 4940 ng·h/mL
AUC(0-inf) [10]: 17700 ng·h/mL
Vd [11]: 1.01 L/kg
IC50 [3]: 364 nM

Compound: Cc1noc(C)c1-c1ccc2nc(N3CCC4(CCN(C)C4=O)CC3)nc(N3CCOC[C@@H]3c3ccccc3)c2c1
Kd [1]: 110 nM
IC50 (MV4-11): 1360 nM

Compound: Cn1cc(-c2ccc3nc(-c4cnn(CC(C)(C)O)c4)nc(N4CCOC[C@@H]4c4ccc(Cl)cc4)c3c2)ccc1=O
Kd [1]: 119 nM
IC50 (MV4-11): 1140 nM

Compound: Cn1cc(-c2ccc3nc(-c4cnn(CC(C)(C)O)c4)nc(N4CCOC[C@@H]4c4ccc(F)cc4)c3c2)ccc1=O
Kd [1]: 160 nM
IC50 (MV4-11): 870 nM

Compound: Cn1cc(-c2ccc3nc(-c4cnn(CC(C)(C)O)c4)nc(N4CCOC[C@@H]4c4cccs4)c3c2)ccc1=O
clearance [4]: 6.4 mL/min/kg
bioavailability [5]: 83%
Kd [1]: 300 nM
IC50 (MV4-11): 980 nM
half-life [6]: 2.3 h
half-life [7]: 1.6 h
Cmax [8]: 2040 ng/mL
Cmax ([2]; CD-1, mouse, read-out: Cmax): 2090 ng/mL
AUC(0-inf) [9]: 5550 ng·h/mL
AUC(0-inf) [10]: 22900 ng·h/mL
Vd [11]: 1.08 L/kg
IC50 [3]: 165 nM

Compound: Cc1noc(C)c1-c1ccc2nc(N3CCN(CCN(C)C)CC3)nc(N3CCOC[C@H]3c3ccccc3)c2c1
IC50 (MV4-11): 1280 nM

Compound: Cc1noc(C)c1-c1ccc2nc(-c3cnn(CC(C)(C)O)c3)nc(N3CCNC[C@@H]3c3ccccc3)c2c1
Kd [1]: 88 nM
IC50 (MV4-11): 590 nM
AUC [9]: 123 ng·h/mL

Compound: Cc1noc(C)c1-c1ccc2nc(C(=O)NC3CCN(C)CC3)nc(N3CCOC[C@@H]3c3ccccc3)c2c1
Kd [1]: 210 nM
IC50 (MV4-11): 1600 nM

Compound: CC(=O)N1CCN(c2nc(-c3cnn(CC(C)(C)O)c3)nc3ccc(-c4c(C)noc4C)cc23)[C@@H](c2ccccc2)C1
clearance [4]: 7.3 mL/min/kg
bioavailability [5]: 95%
Kd [1]: 81 nM
IC50 (MV4-11): 850 nM
half-life [6]: 1.5 h
half-life [7]: 1.7 h
Cmax [8]: 2450 ng/mL
Cmax ([2]; CD-1, mouse, read-out: Cmax): 3450 ng/mL
AUC(0-inf) [9]: 4640 ng·h/mL
AUC(0-inf) [10]: 21900 ng·h/mL
Vd [11]: 0.72 L/kg
IC50 [3]: 140 nM

Compound: Cc1noc(C)c1-c1ccc2nc(-c3cnn(CC(C)(C)O)c3)nc(N3CCOC[C@@H]3C3CCC3)c2c1
Kd [1]: 195 nM
IC50 (MV4-11): 2200 nM
t1/2 [12]: 0.3 h

Compound: Cc1noc(C)c1-c1ccc2nc(-c3cnn(CC(C)(C)O)c3)nc(N3CCOC[C@@H]3C3CCCCC3)c2c1
Kd [1]: 123 nM
IC50 (MV4-11): 1430 nM
t1/2 [12]: 0.067 h
